According to patent publication US6417210B1 (MOR-Research Applications Ltd., priority 1998, dated 2002):

Assays:
[1] = tested on: patients suffering from advanced Parkinson's disease with severe levodopa-induced dyskinesias
Description: The patients were given optimal anti-parkinsonian drug treatment during the three months prior to the clinical trial. Duration of study was six weeks. First two weeks served to accumulate baseline data. Patients filled up dyskinesias diaries in which they marked at every waking hour whether involuntary movements were present and their severity (mild/moderate and severe). […] The dose was then increased to 25 mg, b.i.d. for additional four days (once in the morning and once in the early afternoon). The dose as then further increased to two 50 mg tablets (total of 100 mg. daily) which the patients took for three additional weeks. They continued to fill up their dyskinesias diaries throughout the trial period.

baboons = details: induced by 3-nitropropionic acid, Palfi et al. 1997; cited from earlier work

In the case of `Nc1nc2ccc(OC(F)(F)F)cc2s1` [Riluzole, 2-amino-6-trifluoromethoxy benzothiazole], the Adverse effects ([1]; riluzole up to 50 mg b.i.d.) is reported as “no report of adverse-effects”, the Tolerability ([1]; riluzole up to 50 mg b.i.d.) is reported as “well-tolerated” and the “Efficacy of levodopa and other anti-parkinsonian drugs and total daily time spent in "on" periods” value ([1]; when patients took riluzole) is reported as “no decrease”. For the same compound, the “Worsening of the parkinsonian signs and symptoms” value ([1]; when patients took riluzole) was “no worsening” and the Abnormal motor movement (baboons) was “reduces various abnormal motor movement”.
